Assay results: patent US20240277829A1, “HIV-1 VACCINATION AND SAMT-247 MICROBICIDE TO PREVENT HIV-1 INFECTION” (priority 2021, published 2024)

System: CD14^+ monocytes
Experiment: Zinc chelation: macaque blood monocytes, SAMT-247 and/or gp120 peptides with or without TPEN
Assay type: cell-based
Method: Zinc chelation: The frequencies and cytokine levels of NK cells, monocytes and T cells were measured in macaque blood. Cryopreserved PBMCs were thawed and cultured in R10 in the presence/or absence of SAMT-247 and/or gp120 peptides for 12 hours. Cells were incubated with or without Zinc chelator TPEN (cat. #P4413-100 MG, 5 μM) for 12 h. Subsequently, cells were stained for live cells with Live/Dead Blue dye (cat. #L34962, 0.5 μl) from Thermofisher; followed by surface staining with the following: Alexa 700 anti-CD3 (SP34-2; cat. #557917, 5 μl), BV711 anti-CD4 (L200; cat. #563913, 5 μl), BB700 anti-CD8 (RPA-T8; cat. #566452, 5 μl), BUV737 anti-CD20 (2H7; cat. #612848, 5 μl), PE anti-CD45 (D058-1283; cat. #552833, 5 μl), BV786 anti-CCR5 (3A9; cat. #565001, 5 μl), BV496 anti-CD16 (3G8; cat. #612944, 5 μl), BUV661 anti-HLA-DR (G46-6; cat. #612980, 5 μl), BUV805 anti-CD14 (M5E2; cat. #565779, 5 μl) from BD Biosciences; APC-H7 anti-CD11b (ICRF44; cat. #47-0118-42, 5 μl), PE-Cy5 anti-CD95 (ICRF44; cat. #15-0959-42, 5 μl) from eBioscience; APC anti-α4β7, provided by the NIH Nonhuman Primate Reagent Resource (R24 OD010976, and NIAID contract HHSN272201300031C); BV605 anti-CCR6 (G034E3; cat. #353420, 5 μl), BV650 anti-CXCR3 (G025H7; cat. #353730, 5 μl), from Biolegend and PE-Cy7 anti-NKG2A (Z199; cat. #B10246, 5 μl) from Beckman coulter for 30 minutes at room temperature. This was followed by permeabilization with a FOX3-transcription buffer set (cat. #00-5523-00) from eBioscience according to the manufacture's recommendation and subsequently intracellular staining with the following: BV750 anti-TNF-α (MAB11; cat. #566359, 5 μl), BUV395 anti-IFN-γ (B27; cat. #563563, 5 μl), BV510 anti-GranB (GB11; cat. #563388, 5 μl), BV421 anti-IL-10 (JES3-9D7; cat. #564053, 5 μl), PE-CF594 anti-Ki67 (B56; cat. #567120, 5 μl) from BD Biosciences and FITC anti-Perforin (pf-344; cat. #3465-7, 5 μl) from MABTECH for 30 minutes at room temperature. Flow cytometry acquisitions were performed on a FACSYMPHONY™ A5 and examined using FACSDIVA™ software (BD Biosciences).

CC(=O)Sc1ccccc1C(=O)NCCC(N)=O [SAMT-247]
Cytokine (Monocytes unstimulated or +gp120 peptides, * Zinc dependence): >IL-10 * | IL-10 expression in CD14^+ monocytes (SAMT-247 alone or together with gp120 peptides): increased
